Experimental data: patent publication US20220144848A1, “SUBSTITUTED OXOPYRIDINE DERIVATIVES” (Bayer Aktiengesellschaft, priority 2018, published 2022)

Experiments:
human plasma kallikrein = target: T1, human plasma kallikrein (Homo sapiens, UniProt P03952); assay: Determination of the plasma kallikrein activity (fluorogenic peptide substrate H-Pro-Phe-Arg-AMC); assay type: biochemical; details: plasma kallikrein from Kordia, 15 min preincubation, 30 min at 22° C., fluorescence; some as mean values from multiple determinations
T1 construct: purchased Kordia
T1 sequence (P03952 391-638 limits assumed): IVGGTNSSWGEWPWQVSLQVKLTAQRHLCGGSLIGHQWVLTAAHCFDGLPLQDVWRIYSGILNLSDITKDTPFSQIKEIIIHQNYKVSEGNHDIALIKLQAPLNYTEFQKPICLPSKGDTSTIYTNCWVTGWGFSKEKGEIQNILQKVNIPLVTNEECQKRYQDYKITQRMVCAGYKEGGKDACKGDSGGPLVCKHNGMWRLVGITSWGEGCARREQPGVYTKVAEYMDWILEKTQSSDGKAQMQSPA
T1 sequence (P03952 20-390 partner limits assumed): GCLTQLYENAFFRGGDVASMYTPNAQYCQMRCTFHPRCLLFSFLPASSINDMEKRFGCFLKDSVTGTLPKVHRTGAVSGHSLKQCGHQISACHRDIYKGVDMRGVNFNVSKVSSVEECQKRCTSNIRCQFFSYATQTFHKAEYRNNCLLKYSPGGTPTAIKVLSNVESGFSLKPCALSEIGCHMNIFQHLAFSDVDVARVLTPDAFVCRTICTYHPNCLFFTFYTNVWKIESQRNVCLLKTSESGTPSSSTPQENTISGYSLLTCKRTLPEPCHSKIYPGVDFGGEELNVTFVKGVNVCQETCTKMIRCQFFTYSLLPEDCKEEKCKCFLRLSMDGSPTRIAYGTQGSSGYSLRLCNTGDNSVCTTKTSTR
Description: (§1) To determine the plasma kallikrein inhibition of the substances according to the invention, a biochemical test system is used which utilizes the reaction of a peptidic plasma kallikrein substrate to determine the enzymatic activity of human plasma kallikrein. Here, plasma kallikrein cleaves from the peptidic plasma kallikrein substrate the C-terminal aminomethylcoumarin (AMC), the fluorescence of which is measured. The determinations are carried out in microtitre plates.
Test substances are dissolved in dimethyl sulfoxide and serially diluted in dimethyl sulfoxide (3000 μM to 0.0078 μM; resulting final concentrations in the test: 50 μM to 0.00013 μM). In each case 1 μl of the diluted substance solutions is placed into the wells of white microtitre plates from Greiner (384 wells). 20 μl of assay buffer (50 mM Tris/HCl pH 7.4; 100 mM sodium chloride solution; 5 mM of calcium chloride solution; 0.1% of bovine serum albumin) and 20 μl of plasma kallikrein from Kordia (0.6 nM in assay buffer) are then added successively. After 15 min of incubation, the enzyme reaction is started by addition of 20 μl of the substrate H-Pro-Phe-Arg-AMC dissolved in assay buffer (10 μM in assay buffer) from Bachem, the mixture is incubated at room temperature (22° C.) for 30 min and fluorescence is then measured (excitation: 360 nm, emission: 460 nm). The measured emissions of the test batches with test substance are compared to those of control batches without test substance (only dimethyl sulfoxide instead of test substance in dimethyl sulfoxide), and IC50 values are calculated from the concentration/activity relationships. Activity data from this test are listed in Table B below (some as mean values from multiple independent individual determinations): […]

human factor XIa = target: T2, human factor XIa (Homo sapiens, UniProt P03951); assay: Measurement of FXIa inhibition (fluorogenic peptide substrate Boc-Glu(OBzl)-Ala-Arg-AMC); assay type: biochemical; details: factor XIa from Kordia, 15 min preincubation, 30 min at 22° C., fluorescence; some as mean values from multiple determinations
T2 construct: purchased Kordia
T2 sequence (P03951 388-625 limits assumed): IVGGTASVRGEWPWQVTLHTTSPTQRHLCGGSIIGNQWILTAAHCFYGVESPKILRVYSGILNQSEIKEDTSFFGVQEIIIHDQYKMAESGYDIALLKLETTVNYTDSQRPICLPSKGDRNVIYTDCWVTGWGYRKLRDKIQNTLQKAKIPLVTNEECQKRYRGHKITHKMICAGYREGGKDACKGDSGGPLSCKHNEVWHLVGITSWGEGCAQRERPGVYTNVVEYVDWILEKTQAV
T2 sequence (P03951 19-387 partner limits assumed): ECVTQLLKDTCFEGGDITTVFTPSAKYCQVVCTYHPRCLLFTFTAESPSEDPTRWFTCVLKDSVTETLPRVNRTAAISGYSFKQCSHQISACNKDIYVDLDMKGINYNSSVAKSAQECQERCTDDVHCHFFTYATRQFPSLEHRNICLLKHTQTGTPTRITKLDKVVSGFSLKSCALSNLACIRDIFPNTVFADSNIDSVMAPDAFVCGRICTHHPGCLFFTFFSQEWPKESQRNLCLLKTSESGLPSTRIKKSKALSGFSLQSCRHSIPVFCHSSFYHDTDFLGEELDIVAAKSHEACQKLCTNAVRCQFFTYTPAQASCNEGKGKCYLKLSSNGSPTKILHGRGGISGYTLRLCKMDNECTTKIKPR
Description: as §1, with “The factor XIa” for “To determine the plasma kallikrein”, “invention is determined using” for “invention,”, “system” for “system is used”, “factor XIa” for “plasma kallikrein”, “factor XIa.” for “plasma kallikrein.”
Test substances are dissolved in dimethyl sulfoxide and serially diluted in dimethyl sulfoxide (3000 μM to 0.0078 μM; resulting final concentrations in the test: 50 μM to 0.00013 μM). In each case 1 μl of the diluted substance solutions is placed into the wells of white microtitre plates from Greiner (384 wells). 20 μl of assay buffer (50 mM of Tris/HCl pH 7.4; 100 mM of sodium chloride; 5 mM of calcium chloride; 0.1% of bovine serum albumin) and 20 μl of factor XIa from Kordia (0.45 nM in assay buffer) are then added successively. After 15 min of incubation, the enzyme reaction is started by addition of 20 μl of the factor XIa substrate Boc-Glu(OBzl)-Ala-Arg-AMC dissolved in assay buffer (10 μM in assay buffer) from Bachem, the mixture is incubated at room temperature (22° C.) for 30 min and fluorescence is then measured (excitation: 360 nm, emission: 460 nm). The measured emissions of the test batches with test substance are compared to those of control batches without test substance (only dimethyl sulfoxide instead of test substance in dimethyl sulfoxide), and IC50 values are calculated from the concentration/activity relationships.

| IC50 (human plasma kallikrein) | IC50 (human factor XIa) | Structure (SMILES) |
| --- | --- | --- |
| 0.51 µM | 0.006 µM | CC1Cc2ccc(Cl)cc2-c2cc(=O)n(C(C[C@@H]3CCCCO3)C(=O)Nc3ccc(C(N)=O)nc3)cc2CO1 (mixture of isomers) [Example 3, 5-{2-(11-Chloro-7-methyl-2-oxo-7,8-dihydro-2H-[3]benzoxocino[5,6-c]pyridin-3(5H)-yl)-3-[(2S)-tetrahydro-2H-pyran-2-yl]propanamido}pyridine-2-carboxamide] |
| 0.4 µM | 0.0043 µM | CC1Cc2ccc(Cl)cc2-c2cc(=O)n(C(C[C@@H]3CCCCO3)C(=O)Nc3ccc(C(N)=O)cc3)cc2CO1 (mixture of isomers) [Example 5, 4-({2-(11-Chloro-7-methyl-2-oxo-7,8-dihydro-2H-[3]benzoxocino[5,6-c]pyridin-3(5H)-yl)-3-[(2S)-tetrahydro-2H-pyran-2-yl]propanoyl}amino)benzamide] |
| 0.78 µM | 0.014 µM | CC1Cc2ccc(Cl)cc2-c2cc(=O)n(C(C[C@@H]3COCCO3)C(=O)Nc3ccc(C(N)=O)c(F)c3)cc2CO1 (mixture of isomers) [Example 7, 4-({2-(11-Chloro-7-methyl-2-oxo-7,8-dihydro-2H-[3]benzoxocino[5,6-c]pyridin-3(5H)-yl)-3-[(2R)-1,4-dioxan-2-yl]propanoyl}amino)-2-fluorobenzamide] |
| 0.26 µM | 0.0045 µM | CC1Cc2ccc(Cl)cc2-c2cc(=O)n(C(C[C@@H]3COCCO3)C(=O)Nc3ccc(C(N)=O)cc3)cc2CO1 (mixture of isomers) [Example 9, 4-({2-(11-Chloro-7-methyl-2-oxo-7,8-dihydro-2H-[3]benzoxocino[5,6-c]pyridin-3(5H)-yl)-3-[(2R)-1,4-dioxan-2-yl]propanoyl}amino)benzamide] |
| 0.19 µM | 0.019 µM | CC1Cc2ccc(Cl)cc2-c2cc(=O)n(C(C[C@@H]3COCCO3)C(=O)Nc3ccc4nn(C)nc4c3)cc2CO1 (mixture of isomers) [Example 11, 2-(11-Chloro-7-methyl-2-oxo-7,8-dihydro-2H-[3]benzoxocino[5,6-c]pyridin-3(5H)-yl)-3-[(2R)-1,4-dioxan-2-yl]-N-(2-methyl-2H-benzotriazol-5-yl)propanamide] |
| 0.11 µM | 0.0035 µM | C[C@@H]1Cc2ccc(Cl)cc2-c2cc(=O)n(C(CCOC(F)F)C(=O)Nc3ccc(C(N)=O)cc3)cc2CO1 (mixture of isomers) [Example 16, 4-{2-[(7R)-11-Chlor-7-methyl-2-oxo-7,8-dihydro-2H-[3]benzoxocino[5,6-c]pyridin-3(5H)-yl]-4-(difluoromethoxy)butanamido}benzamide] |
| 0.14 µM | 0.0037 µM | C[C@@H]1Cc2ccc(Cl)cc2-c2cc(=O)n(C(C[C@H](C)OC(F)F)C(=O)Nc3ccc(C(N)=O)cc3)cc2CO1 (mixture of isomers) [Example 18, 4-{[(4S)-2-[(7R)-11-Chloro-7-methyl-2-oxo-7,8-dihydro-2H-[3]benzoxocino[5,6-c]pyridin-3(5H)-yl]-4-(difluoromethoxy)pentanoyl]amino}benzamide] |
| 1.3 µM | 0.025 µM | CC[C@@H]1Cc2ccc(Cl)cc2-c2cc(=O)n(C(C[C@@H]3CCCCO3)C(=O)Nc3ccc(C(N)=O)c(F)c3)cc2CO1 (mixture of isomers) [Example 30, 4-{2-[(7R)-11-Chloro-7-ethyl-2-oxo-7,8-dihydro-2H-[3]benzoxocino[5,6-c]pyridin-3(5H)-yl]-3-[(2S)-tetrahydro-2H-pyran-2-yl]propanamido}-2-fluorobenzamide] |
| 1.3 µM | 0.03 µM | NC(=O)c1ccc(NC(=O)C(C[C@@H]2CCCCO2)n2cc3c(cc2=O)-c2cc(Cl)ccc2CC(CO)OC3)cc1F (mixture of isomers) [Example 32, 4-{2-[11-Chloro-7-(hydroxymethyl)-2-oxo-7,8-dihydro-2H-[3]benzoxocino[5,6-c]pyridin-3(5H)-yl]-3-[(2S)-tetrahydro-2H-pyran-2-yl]propanamido}-2-fluorobenzamide] |
| 0.49 µM | 0.0069 µM | NC(=O)c1ccc(NC(=O)C(C[C@@H]2CCCCO2)n2cc3c(cc2=O)-c2cc(Cl)ccc2CC(CO)OC3)cc1 (mixture of isomers) [Example 34, 4-{2-[11-Chloro-7-(hydroxymethyl)-2-oxo-7,8-dihydro-2H-[3]benzoxocino[5,6-c]pyridin-3(5H)-yl]-3-[(2S)-tetrahydro-2H-pyran-2-yl]propanamido}benzamide] |
| 1 µM | 0.012 µM | NC(=O)c1ccc(NC(=O)C(C[C@@H]2COCCO2)n2cc3c(cc2=O)-c2cc(Cl)ccc2CC(CO)OC3)cc1 (mixture of isomers) [Example 36, 4-{2-[11-Chloro-7-(hydroxymethyl)-2-oxo-7,8-dihydro-2H-[3]benzoxocino[5,6-c]pyridin-3(5H)-yl]-3-[(2R)-1,4-dioxan-2-yl]propanamido}benzamide] |
| 4.8 µM | 0.041 µM | CC(C)C1Cc2ccc(Cl)cc2-c2cc(=O)n(C(C[C@@H]3COCCO3)C(=O)Nc3ccc(C(N)=O)c(F)c3)cc2CO1 (mixture of isomers) [Example 40, 4-({2-(11-Chloro-7-isopropyl-2-oxo-7,8-dihydro-2H-[3]benzoxocino[5,6-c]pyridin-3(5H)-yl)-3-[(2R)-1,4-dioxan-2-yl]propanoyl}amino)-2-fluorobenzamide] |
| 0.81 µM | 0.0036 µM | CC(C)C1Cc2ccc(Cl)cc2-c2cc(=O)n(C(C[C@@H]3COCCO3)C(=O)Nc3ccc(C(N)=O)cc3)cc2CO1 (mixture of isomers) [Example 42, 4-({2-(11-Chloro-7-isopropyl-2-oxo-7,8-dihydro-2H-[3]benzoxocino[5,6-c]pyridin-3(5H)-yl)-3-[(2R)-1,4-dioxan-2-yl]propanoyl}amino)benzamide] |
| 1.6 µM | 0.049 µM | CC(C)C1Cc2ccc(Cl)cc2-c2cc(=O)n(C(C[C@@H]3COCCO3)C(=O)Nc3ccc4nn(C)nc4c3)cc2CO1 (mixture of isomers) [Example 44, 2-(11-Chloro-7-isopropyl-2-oxo-7,8-dihydro-2H-[3]benzoxocino[5,6-c]pyridin-3(5H)-yl)-3-[(2R)-1,4-dioxan-2-yl]-N-(2-methyl-2H-benzotriazol-5-yl)propanamide] |
| 2.3 µM | 0.11 µM | CC[C@@H](C(=O)Nc1ccc(C(N)=O)c(F)c1)n1cc2c(cc1=O)-c1cc(Cl)ccc1CC(C(F)F)OC2 (mixture of isomers) [Example 46, 4-({(2S)-2-[11-Chloro-7-(difluoromethyl)-2-oxo-7,8-dihydro-2H-[3]benzoxocino[5,6-c]pyridin-3(5H)-yl]butanoyl}amino)-2-fluorobenzamide] |
| 2 µM | – | CC(C)[C@@H]1Cc2ccc(Cl)cc2-c2cc(=O)n([C@@H](C[C@@H]3CCCCO3)C(=O)Nc3ccc(C(N)=O)c(F)c3)cc2CO1 (single isomer, unassigned) [Example 39] |

| Structure (SMILES) | IC50 (human plasma kallikrein) | IC50 (human factor XIa) |
| --- | --- | --- |
| CC1Cc2ccc(Cl)cc2-c2cc(=O)n(C(CCOC(C)(C)C)C(=O)Nc3ccc(C(N)=O)c(F)c3)cc2CO1 (mixture of isomers) [Example 21, 4-{[4-tert-Butoxy-2-(11-chloro-7-methyl-2-oxo-7,8-dihydro-2H-[3]benzoxocino[5,6-c]pyridin-3(5H)-yl)butanoyl]amino}-2-fluorobenzamide] | 0.83 µM | 0.063 µM |
| CC1Cc2ccc(Cl)cc2-c2cc(=O)n(C(CCOC(C)(C)C)C(=O)Nc3ccc(C(N)=O)cc3)cc2CO1 (mixture of isomers) [Example 23, 4-{[4-tert-Butoxy-2-(11-chloro-7-methyl-2-oxo-7,8-dihydro-2H-[3]benzoxocino[5,6-c]pyridin-3(5H)-yl)butanoyl]amino}benzamide] | 0.41 µM | 0.022 µM |
